Values joined by “and” are separate entries in the source; they are usually repeats but may differ in a detail not shown here. Equal entries are not always repeated.
Key:
[1] = 1H NMR titration chloride binding studies; conditions: for Overall association constant β21 for the 2:1 host:guest complex: calculated by multiplying K 11 and K 21; for Association constant of Cl^− in the presence of HPF6 (1 equiv.), 1:1 (K a) / Association constant of Cl^− in the presence of HPF6 (1 equiv.), 2:1, K 11 / Association constant of Cl^− in the presence of HPF6 (1 equiv.), 2:1, K 21: protonated perenosin, TBA-Cl, DMSO-d6/0.5% H2O, 298 K; for Association constant of Cl^− in the presence of HPF6 (1 equiv.), 1:1 (K a): 1:1 binding model; for Association constant of Cl^− in the presence of HPF6 (1 equiv.), 2:1, K 11 / Association constant of Cl^− in the presence of HPF6 (1 equiv.), 2:1, K 21: 2:1 binding model; for partial protonation of the imine nitrogen: one mole equivalent of HPF6, DMSO-d6/0.5% H2O
Experimental: Proton NMR titrations were performed in DMSO-d 6/0.5% H2O, to assess the ability of compounds 1d and 2–8 to bind chloride, added as the tetrabutylammonium (TBA) salt, in solution. […] However, in the presence of one equivalent of HPF6, strong binding to chloride was observed through downfield shifts of the pyrrole-NH, indole-NH and the protonated imine-NH^+. All three resonances were fitted globally to the 1:1 or 2:1 (sandwich) binding models using Bindfit[48].
S8. 1H NMR Titration Binding Studies
S8.1. Equipment and Sample Preparation
1H NMR titrations were performed on a Bruker Avance AVII400 FT -NMR spectrometer with either SEF 1H/D-19F or DUL D/1H-13C, 5 mm z-gradient probes, operating at a frequency of 400 MHz for 1H NMR with the probe temperature maintained at 298 K unless otherwise stated as determined using a variable temperature unit ([…]). For all NMR titrations, a constant host concentration w as maintained (~ 5.0 mM) by using the host solution to dissolve the guest to make the guest stock solution. Over the course of the titration Hamiltonian Microlitre syringes were used to add aliquots of the guest stock solution to the NMR sample of the host solution.
The anions were added as the tetrabutylammonium (TBA) salts after being dried under high vacuum (< 1.0 mmHg) for 24 h. Stock solutions of the host ( ~ 5.0 mM) were prepared in a DMSO -d6/0.5%H2O mixture. In some titrations, protonation of the host species was achieved through the addition of 1 eq. hexafluorophosphoric acid (HPF6) to the host stock solution. The host stock solutions, with or without addition of HPF6, ( 500 μL) were transferred to an air -tight screw-cap NMR sample tube (5 mm ID) and the same host stock solution was used to prepare the standard guest titrant solution containing approximately 100 mM of the TBA-anion salts. T his ensured a constant concentration of the host (~ 5.0 mM) for the duration of the titration experiment.
S8.2. Titration Procedure
Over the course of the titration small aliquots (2 -100 μL) of the standard guest solution were added to the host solution ( ~ 500 μL) in the NMR tube. For ea ch titration 15 -20 data points were collected and at the end of the titration approximately 10 equivalents of the guest anion salt were present.
Upon each addition of the standard guest solution the samples were thoroughly shaken in the NMR tube and then allowed to equilibrate for up to 2 minutes inside the NMR probe before the spectra were taken. Throughout each titration experiment all parameters of the NMR s pectrometer […]
S8.3. Titration Data Fitting
For each 1H NMR titration, all the proton resonances were monitored for changes in chemical shift.
In the case of protonated host species at least one proton resonance was followed and for the neutral host species two or more proton resonances were followed, which allowed several data sets to use in determination of the association constant (Ka). Global fitting takes into account all data sets at the same time and this improves the quality of the nonlinear curve fitting. The supramolecular.org web applet10 was used to fit the collected titration data and allows the use of different binding models to fit the data in the best way. For compounds 1d and 2-8 firstly the 1:1 […]
cooperative or additive, was used. The quality of fit is determined by the covariance of the fit (covfit), which is calculated by dividing the (co)variance of the residual (experimental data − calculated data) with the covariance of the experimental data. A covariance of fit factor (F covfit) can be obtained by dividing the covfir from the 1:1 binding model by the covfit from the 2:1 binding model. Due to the higher number of parameters from the 2:1 binding model an improvement in the covfit (i.e. F covfit)

[2] = NMDG-Cl assay by HPTS (H^+/Cl^− symport); assay type: biochemical; conditions: for EC50 NMDG-Cl (by HPTS): H^+/Cl^− symport, no gramicidin or oleic acid; for EC50 (Gra) NMDG-Cl (by HPTS): in the presence of gramicidin 0.1 mol%; for EC50 (OA) NMDG-Cl (by HPTS): in the presence of oleic acid 2 mol%
Experimental: The selectivity for Cl^−>H^+/OH^− transport of the perenosins was quantified using a modified NMDG-Cl assay. Unilamellar vesicles loaded with HPTS (1 mM) and N-methyl-D-glucamine chloride (NMDG-Cl) (100 mM), buffered to pH 7 with HEPES (10 mM) were prepared. Free base NMDG (0.5 M) was added increasing the extravesicular solution to pH 8, and the dissipation of this gradient following the addition of receptors was monitored. Dissipation of pH gradient indicates H^+/Cl^− symport (or the functionally equivalent OH^−/Cl^− exchange) mediated by perenosins. Gramicidin D (Gra) is a proton channel added to facilitate H^+ transport. The addition of oleic acid (OA), a naturally occurring fatty acid found in cell membranes, allowed the investigation of the enhancement in H^+/Cl^− symport, in the presence of oleic acid. Anion transporters can assist the fatty acid flip-flop mechanism by taking on the role of a flippase for fatty acid anions via binding to the anionic carboxylate head group, masking the charge and allowing rapid passage of the head group through the lipid bilayer. This in turn accelerates the natural proton transport mediated by fatty acids in biological membranes.
For all cases EC50 values were obtained from dose-response experiments and subsequent Hill analysis (see Supplementary Information). Chloride selectivity was then quantified to give a selectivity factor (SG), shown in Table 2, using the ratio of the EC50 values. From the previous cationophore coupled assays, it was evident that the capability of perenosins to facilitate electrogenic chloride transport is negligible, therefore an absence in selectivity for Cl^−>H^+/OH^− was expected. […] FOA values for the overall H^+/Cl^− cotransport rate were calculated for compounds 1d and 2–6 in the presence of OA and are also shown in Table 2. […] In the presence of fatty acids, an alternative pathway that involves the diffusion of the fatty acid complex and free fatty acids could replace this step. […] This may be likely due to the competitive binding of the receptors to the carboxylate head group so inhibiting chloride binding and transport.
S10.8. General Procedure for the HPTS Assay
Unilamellar vesicles were prepared using previously reported literature procedures16. A lipid film of POPC (1-palmitoyl-2-oleoyl-sn-glycero-3-phosphocholine) was prepared from a chloroform solution under reduced pressure and then dried under vacuum for 4 or more hours. The lipid film was rehydrated by vortexing with an internal solution containing HPTS (1 mM). The lipid suspension was then subjected to 9 freeze-thaw cycles and left to rest at room temperature for 30 minutes. After this, the suspension was extruded 25 times through a 200 nm polycarbonate membrane resulting in unilamellar vesicles of a mean diameter of 200 nm. The un-encapsulated HPTS was removed by size exclusion chromatography using a sephadex G-25 column and an external solution eluent that does not contain HPTS. The lipid solution obtained after dialysis was diluted to a standard volume (usually 10 mL) with the external buffered solution to obtain a lipid stock of known concentration.
In each experiment identical internal and external solutions were used with various salts (NMDG -Cl or sodium gluconate) buffered with HEPES (10 mM) to pH 7.0, and are detailed below.
The lipid stock was diluted with the external buffer solution to a standard volume (2.5 mL), to afford a solution with a lipid concentration of 0.1 mM. The compounds were added as a DMSO solution (10 μL) and when an assisting ionophore (gramicidin) or oleic acid (a naturally occurring monosaturated fatty acid) was used this was also added as a DMSO solution (5 μL, 0.1 mol% or 2 mol% respectively (with respect to lipid)). To start the experiment, after the addition of the compounds, a base pulse (25 μL, of NMDG or TBAOH (0.5 M)) was spiked in to generate a pH gradient across the membrane. […]

Structure (SMILES)	Overall association constant β21 for the 2:1 host:guest complex [1] [M⁻¹]	Association constant of Cl^− in the presence of HPF6 (1 equiv.), 1:1 (K a) [1] [M⁻¹]	Association constant of Cl^− in the presence of HPF6 (1 equiv.), 2:1, K 11 [1] [M⁻¹]	Association constant of Cl^− in the presence of HPF6 (1 equiv.), 2:1, K 21 [1] [M⁻¹]	EC50 NMDG-Cl (by HPTS) [2]	EC50 (Gra) NMDG-Cl (by HPTS) [2] [mol%]	EC50 (OA) NMDG-Cl (by HPTS) [2] [mol%]	partial protonation of the imine nitrogen [1]
CCCCCc1cc2cc(C(F)(F)F)cc(/N=C/c3[nH]c(C)cc3C)c2[nH]1 [Perenosin 3]	393000	3440	190	2070	0.01151 mol%	0.00879	0.04912	–
CCCCCc1cc2cc(C)cc(/N=C/c3[nH]c4ccccc4c3C)c2[nH]1 [Perenosin 8]	35500	142	184	193	–	–	–	~10%
CCCCCc1cc2cc(C)cc(/N=C/c3[nH]c(C)cc3C)c2[nH]1 [Perenosin 2]	1.18e+06	2450	2500	473	0.00062 mol%	0.00037	0.00085	–
CCCc1cc2cc(C)cc(/N=C/c3[nH]c(C)cc3C)c2[nH]1 [Perenosin 4]	468000	3440	1530	306	0.00069 mol%	0.00038	0.00008	–
CCCCCc1c(C)[nH]c(/C=N/c2cc(C)cc3cc[nH]c23)c1C [Perenosin 5]	4630	2610	331	14	0.00231 mol%	0.00095	0.00273	–
CCCCCc1cc(/N=C/c2[nH]c3ccccc3c2C)c2[nH]ccc2c1 [Perenosin 7]	36500	157	72	507	–	–	–	approximately 20%
CCCCCc1cc(/N=C/c2[nH]c(C)cc2C)c2[nH]ccc2c1 [Perenosin 1d]	333000	605	1750	190	0.0107 mol% and 0.01073 mol%	0.00656	0.00925	–
CCCCCc1cc2cc(C)cc(/N=C/c3[nH]c(C)c(CCCCC)c3C)c2[nH]1 [Perenosin 6]	172000	78300	1090	158	0.00249 mol%	0.00211	0.00208	–
